The values below come from PubChem BioAssay (NCI).

Test in all cases: growth of human tumour cells (NCI), 48 h
The test system of test [1] is NCI-H226 lung.
Test [2] deals with SNB-19 CNS.
Test [3] has as its system ACHN renal.
In test [4] the test system is SF-295 CNS.
Test [5] has as its system KM20L2 colon.
The subject of test [6] is KM12 colon.
The test system of test [7] is SNB-75 CNS.
Test [8] concerns HOP-18 NSCLC.
The subject of test [9] is T-47D breast.
Test [10] concerns OVCAR-3 ovarian.
The test system of test [11] is DMS 273 small cell lung.

Each structure is given as a SMILES string.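 All cell lines were grown in 96-well plates and treated with compound for 48 hours. Definition used: TGI = concentration required for complete inhibition of growth.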

With `COc1cccc(NC(=O)CSc2nnc(-c3ccc(N=Cc4ccc(Cl)cc4)cc3)o2)c1`, the TGI was found to be 43.4 µM in test [1]; 53.2 µM in test [2]; 30.3 µM in test [3]; 43.5 µM in [4]; 30.6 µM in test [5]; 31.3 µM in [6]. The TGI is 66.3 µM in [7] and above 100 µM in test [8].

With `Cc1cc2ccccc2n1CC(=O)NCC(C)C`, the TGI in test [9], in test [1], in test [10], in test [2], in test [3] and in [4] was above 100 µM each time. Further, the TGI in test [6] and in test [7] was above 100 µM each time.

Turning to `COc1ccc(C(O)c2ccc3c(c2)OCO3)cc1` (stereo not drawn), the TGI in test [9], in [1], in test [10], in test [2], in test [3] and in test [4] was above 100 µM each time. For the same compound, the TGI in [6] and in test [7] was above 100 µM each time.

For `C/C(O)=C(\C=N\C(N)=S)C(=O)Nc1ccccc1C`, the TGI in test [9], in test [1], in test [10], in [2], in test [3] and in test [4] was above 100 µM in each case. Moreover, the TGI in [6] and in test [7] was above 100 µM in each case.

As to `CC(=O)/C=C/C=C(\C)CC/C=C(\C)CC(C)C`, the TGI in [9] was 46 µM; in test [1] it was 68.6 µM; in test [10] it was 78.7 µM; in [2], above 100 µM; in [3], above 100 µM; in test [4], above 100 µM. The TGI is 95.3 µM in [6] and 98.8 µM in test [7].

`O=C(O)C(CCc1ccccn1)c1ccccc1` (stereo not drawn): the TGI in test [9], in test [1], in [10], in test [2], in test [3] and in test [4] was above 100 µM each time. The TGI in test [6] and in test [7] was above 100 µM in each case.

`O=S1(=O)NNC(=NCc2ccc(Cl)cc2)c2ccccc21`: the TGI in [1], in [10], in test [2], in test [3], in test [4] and in test [5] was above 100 µM each time. In addition, the TGI in test [11] and in [6] was above 100 µM throughout.

For `COC(=O)[C@H](C)N1C(=O)N[C@@H](C(C)C)C1=O`, the TGI in [9], in test [1], in [10], in test [2], in test [3] and in [4] was above 100 µM throughout. For the same compound, the TGI in [6] and in test [7] was above 100 µM each time.

For `CCCCc1c2c(nc3c1CCc1cc4c(nc1-3)-c1nc3c(c(CCCC)c1CC4)CCC/C3=C\c1ccccc1)/C(=C/c1ccccc1)CCC2`, the TGI in [1], in test [10], in test [2], in test [4], in [5] and in test [11] was above 100 µM in each case. Moreover, the TGI in test [6] was above 100 µM.

As to `Cc1ccc(C(=O)N(C(C)C)C(C)C)cc1N=NN(C)C`, the TGI in test [9], in test [1], in test [10], in test [2], in test [3] and in test [4] was above 100 µM in each case. The TGI in [5], in test [11] and in test [6] was above 100 µM each time.

Take `Nc1ccc2c(c1)C(=O)c1ccccc1-2`: the TGI in test [9], in test [1], in test [10], in test [2], in test [3] and in [4] was above 100 µM each time. The TGI in test [6] and in test [7] was above 100 µM each time.

In the case of `Cc1cc(C)c(S(=O)(=O)N(CCCCN)OCCCN)c(C)c1`, the TGI came out at 33.4 µM in test [9]; 31.8 µM in test [1]; 36.3 µM in test [10]; 34.5 µM in test [2]; 37 µM in test [3]; 37 µM in test [4]. The TGI came to 35 µM in test [6] and 27.5 µM in test [7].

As for `Cc1cccc(C(C)(C)C)c1NC(=O)/C(Cc1nc2ccc([N+](=O)[O-])cc2[nH]c1=O)=N/NC(=O)C[N+](C)(C)C`, the TGI in test [9], in test [1], in test [10], in test [2], in test [3] and in [4] was above 100 µM in each case. Also, the TGI in test [6] and in test [7] was above 100 µM each time.

On to `CC1(C)O[C@@H](CO)[C@H]([C@@]23OC[C@H]4OC(C)(C)OC4[C@@H]2OC(C)(C)O3)O1` (stereo partly drawn), for which the TGI in test [9], in test [1], in test [10], in test [2], in [3] and in test [4] was above 100 µM each time. Also, the TGI in test [6] and in test [7] was above 100 µM in each case.

Regarding `CCCCCc1cc2c(cc1O)CC[C@@H]1[C@@H]2CC[C@]2(C)[C@@H](O)CC[C@@H]12`, the TGI in test [9] amounted to 55.5 µM; in test [1], 32.6 µM; in test [10], 29.4 µM; in test [2], 40.3 µM; in test [3] it was 27.5 µM; in [4], 28.2 µM. Moreover, the TGI came out at 26.1 µM in [6] and 30.5 µM in test [7].

Regarding `Nc1nc(Cl)cc(N=Nc2ccccc2)n1`, the TGI in [9] was above 100 µM; in [1], above 100 µM; in test [10] it was 30.3 µM; in test [2], above 100 µM; in [3] it was 97.2 µM; in test [4], above 100 µM. In addition, the TGI in test [6] and in test [7] was above 100 µM in each case.
